Experimental data from publication PMC9558617 (ACS infectious diseases, 2022).
Converted amounts (≈) assume the structure as drawn. Where two headings read alike, the source gives them in different places.

What was measured:
[1] = system: Mtb WT; experiment: microbe, parasite or virus in culture; type: cell-based, Mycobacterium tuberculosis; settings: for MIC: Mycobacterium tuberculosis
[2] = system: PanE KPR from E. coli; settings: literature values; cited from earlier work
[3] = system: CC(C)(CO)C(=O)C(=O)O; experiment: purified protein, by the assay type
[4] = system: Mtb H37Rv; experiment: microbe, parasite or virus in culture; type: cell-based; settings: Mycobacterium tuberculosis, 168 h, read-out: MIC 7H9/ADC/Tw

Compound	MIC ([1]; read-out: MIC WT) [µM]	also measured
NNC(=O)c1ccncc1 [Isoniazid]	0.31 (≈ 0.0425 µg/mL)	
C[C@@H](O)[C@H]1C(=O)N2C(C(=O)O)=C(S[C@@H]3CN[C@H](C(=O)N(C)C)C3)[C@H](C)[C@H]12 [Meropenem]	1.2 (≈ 0.46 µg/mL)	
NADPH		Km [2]: 4 to 7 µM
Nc1ccc(C(=O)O)c(O)c1 [p-Aminosalicylic acid]	0.3 (≈ 0.0459 µg/mL)	
CC1(C)S[C@@H]2[C@H](NC(=O)[C@H](N)c3ccccc3)C(=O)N2[C@H]1C(=O)O [Ampicillin]	> 50	MIC WT [1]: >50 µM; MIC [1]: 2.3 µM (≈ 0.804 µg/mL)
MtbPanG (Rv3603c) (Mycobacterium tuberculosis H37Rv)		Km [3]: 24 ± 2 µM
CC[C@@H](CO)NCCN[C@@H](CC)CO [Ethambutol]	1.6 (≈ 0.327 µg/mL)	
CCc1cc(C(N)=S)ccn1 [Ethionamide]	0.3 (≈ 0.0499 µg/mL)	
N[C@H](Cc1ccccc1)C(=O)O [D-Phe, D-phenylalanine]		MIC [4]: > 310 µM
C[C@@H](O)[C@H]1C(=O)N2C(C(=O)O)=C(SCCN=CN)C[C@H]12 [Imipenem]	0.39 (≈ 0.117 µg/mL)	
CO[C@H]1/C=C/O[C@@]2(C)Oc3c(C)c(O)c4c(O)c(c(/C=N/N5CCN(C)CC5)c(O)c4c3C2=O)NC(=O)/C(C)=C\C=C\[C@H](C)[C@H](O)[C@@H](C)[C@@H](O)[C@@H](C)[C@H](OC(C)=O)[C@@H]1C [Rifampicin]	0.012 (≈ 0.00988 µg/mL)	
C[C@]1(COc2ccc(N3CCC(Oc4ccc(OC(F)(F)F)cc4)CC3)cc2)Cn2cc([N+](=O)[O-])nc2O1 [Delamanid]	0.0031 (≈ 0.00166 µg/mL)	
[H]/N=C(/N)N[C@H]1[C@H](O)[C@@H](O)[C@H](O[C@@H]2O[C@@H](C)[C@](O)(C=O)[C@H]2O[C@@H]2O[C@@H](CO)[C@H](O)[C@@H](O)[C@@H]2NC)[C@@H](N/C(N)=N\[H])[C@@H]1O [Streptomycin]	0.46 (≈ 0.268 µg/mL)	
CC(C)/N=c1\cc2n(-c3ccc(Cl)cc3)c3ccccc3nc-2cc1Nc1ccc(Cl)cc1 [Clofazimine]	0.16 (≈ 0.0757 µg/mL)	
Capreomycin		MIC WT [1]: 0.78 µM
CN[C@H](CC(C)C)C(=O)N[C@H]1C(=O)N[C@@H](CC(N)=O)C(=O)N[C@H]2C(=O)N[C@H]3C(=O)N[C@H](C(=O)N[C@H](C(=O)O)c4cc(O)cc(O)c4-c4cc3ccc4O)[C@H](O)c3ccc(c(Cl)c3)Oc3cc2cc(c3O[C@@H]2O[C@H](CO)[C@@H](O)[C@H](O)[C@H]2O[C@H]2C[C@](C)(N)[C@H](O)[C@H](C)O2)Oc2ccc(cc2Cl)[C@H]1O [Vancomycin]	5 (≈ 7.25 µg/mL)	
N[C@@H]1CON=C1O [D-Cycloserine]	4.7 (≈ 0.48 µg/mL)	
COc1c(N2C[C@@H]3CCCN[C@@H]3C2)c(F)cc2c(=O)c(C(=O)O)cn(C3CC3)c12 [Moxifloxacin]	0.12 (≈ 0.0482 µg/mL)	
CC(C)(CO)C(=O)C(=O)O [ketopantoate]		Km [2]: 30 to 120 µM
CC(=O)NC[C@H]1CN(c2ccc(N3CCOCC3)c(F)c2)C(=O)O1 [Linezolid]	0.78 (≈ 0.263 µg/mL)	
COc1nc2ccc(Br)cc2cc1[C@@H](c1ccccc1)[C@@](O)(CCN(C)C)c1cccc2ccccc12 [Bedaquiline]	0.31 (≈ 0.172 µg/mL)	
